Experimental data reported in publication PMC5716991, “The anthelmintic praziquantel is a human serotoninergic G-protein-coupled receptor ligand” (Nature Communications, 2017).

Biological target: T1, 5-HT2B receptor (Homo sapiens, UniProt P41595)
T1 construct: gene HTR2B
Assay: [3H]-LSD radioligand displacement at […] (PDSP primary screen); partial agonist in Ca2+ flux
Format: binding

T1 sequence (P41595 whole entry): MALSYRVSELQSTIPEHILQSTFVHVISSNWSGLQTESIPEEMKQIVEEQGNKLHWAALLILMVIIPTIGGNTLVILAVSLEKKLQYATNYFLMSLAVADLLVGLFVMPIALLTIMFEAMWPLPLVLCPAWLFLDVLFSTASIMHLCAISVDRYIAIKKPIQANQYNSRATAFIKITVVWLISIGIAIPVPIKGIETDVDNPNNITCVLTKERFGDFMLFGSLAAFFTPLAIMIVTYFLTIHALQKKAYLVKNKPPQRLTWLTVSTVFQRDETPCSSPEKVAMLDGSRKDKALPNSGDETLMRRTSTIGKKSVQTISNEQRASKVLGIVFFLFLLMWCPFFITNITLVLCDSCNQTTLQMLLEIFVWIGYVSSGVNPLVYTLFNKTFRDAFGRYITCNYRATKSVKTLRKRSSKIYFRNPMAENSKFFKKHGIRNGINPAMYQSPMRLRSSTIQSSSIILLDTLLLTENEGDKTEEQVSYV

With O=C(C1CCCCC1)N1CC(=O)N2CCc3ccccc3[C@@H]2C1 [(R)-PZQ] the “[3H]-LSD radioligand displacement at 5 μM (PDSP primary screen); partial agonist” value was “the human 5-HT2B receptor (5-HT2BR)—where inhibition seen with (±)-PZQ was attributable solely to (R)-PZQ”.
